Results on two compounds are retold here after EPA's ToxValDB 9.5 (doi:10.2903/j.efsa.2010.1868).

One data set has as its system Anas platyrhynchos. The note with it: short-term; oral; feed; mortality.
The next data set has as its system Apis mellifera. The note with it: acute; duration: 48 hours; oral; unspecified; mortality.
The test system of the next data set is Bibionidae. The note with it: chronic/long-term; duration: 26 days; development.
In another data set the test system is Canidae. The settings on record: oral, Dog Other, body weight.
The subject of a further data set is Colinus virginianus. The note with it: reproduction developmental.
For the next data set, the system named is Daphnia magna. The settings on record: chronic/long-term; duration: 21 days; other.
In the next data set the test system is Lepomis macrochirus. The settings on record: acute; duration: 96 hours; mortality.
The subject of a further data set is Mus musculus. The note with it: acute; oral; mortality.
The subject of another data set is Perdix sp. The settings on record: acute; oral; unspecified; mortality.
A further data set relates to Pimephales promelas. The note with it: chronic/long-term; duration: 33 days; other.
The subject of another data set is Typhlodromus pyri. Briefly: LR50; higher = less toxic. The settings on record: chronic/long-term; duration: 7 days; mortality.

≈ marks a conversion by molar mass, not a printed value.

For the compound `NC(Cc1ncn[nH]1)C(=O)O` (configuration not stated) [1,2,4-Triazole-3-alanine], the NOAEL (commonly the highest dose or exposure tested at which no adverse effect was seen) in the data set with Rattus norvegicus (subchronic, duration: 90 days) was 90 mg/kg-day.

On to `OC(Cn1cncn1)(c1ccc(F)cc1)c1ccccc1F` (configuration not stated) [Flutriafol], for which the LC50 in the data set on Anas platyrhynchos was 435 mg/kg-day; with Lepomis macrochirus, 33 mg/L (≈ 110 µM); in the data set on Tagia sp. (acute, duration: 14 days, mortality), more than 1000 mg/kg. In addition, the values for the LD50 in the data set on Apis mellifera, in the data set with Mus musculus and with Perdix sp. were more than 2 µg/piece, 179 mg/kg and 616 mg/kg, respectively. The NOEC with Bibionidae was 1.6 mg/L; in the data set with Colinus virginianus, 35.8 mg/kg-day; with Daphnia magna, 0.31 mg/L; in the data set on Pimephales promelas, 4.8 mg/L; with Tagia sp. (chronic/long-term, duration: 56 days) it was 12.2 mg/kg. The no observed adverse effect level (NOAEL) in the data set on Canidae (chronic, duration: 1 years) was 5 mg/kg-day; in the data set with Canidae (subchronic, duration: 90 days), 5 mg/kg-day; in the data set on Rattus norvegicus (chronic, duration: 2 years, organ weight) it was 1 mg/kg-day; in the data set on Rattus norvegicus (reproduction developmental, reproduction), 13.5 mg/kg-day. In the data set with Typhlodromus pyri, this compound came in with an LR50 of 204 g/ha.
